Assay results published in patent US6911470B1, “Polyoxometalate compounds as antiviral agents” (priority 1988, dated 2005).
Where two headings read alike, the source gives them in different places.

Experiments:
human PBM cells = test: Cytotoxicity assay on uninfected PHA stimulated human PBMC (trypan blue); assay type: cell-based
How it was run: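 Uninfected PHA-stimulated human PBMC at 2×10^5 cells/ml were cultured with or without drug for 6 days. Viability was counted by trypan blue exclusion on a hemacytometer. IC50 was derived by the median-effect method.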

HSV-1 = test: Plaque reduction assay for herpes simplex viruses in Vero cells; assay type: cell-based, herpes simplex virus type 1; conditions: Table 2, read-out: EC-50 HSV-1
Protocol: (§1) Cell culture assays for heroes simplex viruses. Mycoplasma-free Vero cells, obtained from Flow Laboratory (McLean, Va.), were used for the plaque assays. The methodologies for the plaque reduction and cytotoxicity assays have been previously described (Schinazi et al, Antimicrob. Agents Chemother. 22, 499-507, 1982). Median-effect method. Dose-effect relationships were analyzed by the median-effect equation (Chou et al, Adv. Enz. Regul. 22, 27-55, 1984). The slope (m) and median effective and inhibitory concentration (EC50 and IC50) values were obtained by using a computer program developed by Chou and Chou (Chou et al, Elsevier-Biosoft, Elsevier Science Publishers, Cambridge, U.K., 1985).

HSV-2 = test: as above; assay type: cell-based, herpes simplex virus type 2; conditions: Table 2, read-out: EC-50 HSV-2
Protocol: as §1

Vero cells = test: Cytotoxicity assay in Vero cells; assay type: cell-based; conditions: for IC50: Table 2, >100 μM = Nontoxic, read-out: IC50 Toxicity Vero Cells; for Toxicity Vero Cells, percent at given concentration: 100 μM
Excerpt: Cell culture assays for heroes simplex viruses. Mycoplasma-free Vero cells, obtained from Flow Laboratory (McLean, Va.), were used for the plaque assays. The methodologies for the plaque reduction and cytotoxicity assays have been previously described (Schinazi et al, Antimicrob. Agents Chemother. 22, 499-507, 1982).

[1] = target: T1, HIV-1 reverse transcriptase (Human immunodeficiency virus type 1 group M subtype B, UniProt P04585); test: Evaluation of compounds on purified retroviral RT (cell-free, virion-derived); assay type: biochemical; conditions: Table 2; read-out: EC-50 Cell-Free RT (virion-derived)
T1 construct: HIV-1 RT was isolated from detergent disrupted virions; made in house; host or cells: virions pelleted from culture fluid of HIV-1-infected PHA-stimulated human PBMC; DEAE-cellulose and phosphocellulose chromatography
How it was run: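 Enzyme was HIV-1 RT partially purified from virions of infected PHA-stimulated PBMC by DEAE-cellulose and phosphocellulose chromatography. Reactions at pH 8.0 with 2 mM MgCl2, 50 mM KCl, 3 μg/ml (rA)·(dT)12-18 template and 1 μM [3H]TTP, 60 min at 37 °C. IC50 from median-effect analysis.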

[2] = Table 1, read-out: IC50 Toxicity in Human PBM Cells
[3] = Table 2, >100 μM = Nontoxic, read-out: IC50 Toxicity PBM Cells

Compound	IC50 (human PBM cells; [2]) [µM]	EC50 (HSV-1) [µM]	EC50 (HSV-2) [µM]	IC50 (Vero cells) [µM]	EC50 [1] [µM]	IC50 (human PBM cells; Homo sapiens, PBMC, Table 1, read-out: IC50 Toxicity in Human PBM Cells) [µM]	IC50 (human PBM cells; Homo sapiens, PBMC, Table 2, >100 μM = Nontoxic, read-out: IC50 Toxicity PBM Cells) [µM]	EC50 (HSV-1; Human alphaherpesvirus 1, Vero) [µM]	EC50 (HSV-2; Human alphaherpesvirus 2, Vero) [µM]	IC50 (Vero cells; Chlorocebus sabaeus, Vero) [µM]	IC50 (human PBM cells; [3]) [µM]	Toxicity PBM Cells, percent at given concentration (human PBM cells; 200 μM)	Toxicity PBM Cells, percent at given concentration (human PBM cells; 100 μM)	Toxicity Vero Cells, percent at given concentration (Vero cells)
H4SiW12O40 [Formula 3]	> 200	1.6	1.5	80	26.1	–	–	–	–	–	–	–	–	–
Cc1cn([C@H]2C[C@H](N=[N+]=[N-])[C@@H](CO)O2)c(=O)[nH]c1=O [Formula 22, 3′-azido-3′-deoxythymidine, reference compound]	–	–	–	–	–	> 100	> 100	> 100	> 100	29	–	–	–	–
(ArgH^+)m(H^+)4-mST, where m=1-4 [(ARGH^+)nH^+(4−n)ST]	–	0.18	< 1	> 100	14.2	–	–	–	–	–	> 100	–	–	–
(Me4N)4W10O32 [Formula 19]	> 100	5.98	8.78	> 100	10.1	–	–	–	–	–	–	–	–	–
H5BW12O40 [Formula 4]	126	< 1	–	85	2.6	–	–	–	–	–	–	76%,	–	–
(NH4)4W10O32 [Formula 18]	115	> 10	9.7	> 100	24.2	–	–	–	–	–	> 100	–	–	–
H3PW12O40 [Formula 2]	> 100	12.7	18.7	10	> 100	–	–	–	–	–	–	–	–	–
H6P2W18O62 [Formula 13]	6.2	0.16	0.18	–	0.14	–	–	–	–	–	–	–	90%,	81.9%,
(NH4)6P2W18O62 [Formula 14]	1.8	0.33	0.24	–	0.13	–	–	–	–	–	–	–	76%,	83%,
